The source of these data is PMC6009919, “Newer human inosine 5′-monophosphate dehydrogenase 2 (hIMPDH2) inhibitors as potential anticancer agents” (Journal of Enzyme Inhibition and Medicinal Chemistry, 2018).

Molecules are shown by their SMILES. Counter-ions that a name gives are not always drawn. Like-named read-outs stand apart in the source and are kept apart here.

The IC50 is the concentration that gives 50% inhibition. Usually inhibition stands for the change of the read-out against control, counted positive when it falls. For orientation: viability means a per cent measure of how many cells are alive, often set against a control.

Data set [1] has as its system MDA-MB-231 (breast adenocarcinoma). The data set is described as follows: Cell viability (MTT assay), MDA-MB-231. Type of data set: cell-based. To be noted: for IC50: MTT, 48-h incubation, triplicate, read-out: Cytotoxicity IC50 (μM) ± SD, MDA-MB-231. The protocol:
(§1) Cancer cell lines such as MDA-MB-231 (breast adenocarcinoma), DU145 (prostate carcinoma) and U87 MG (glioblastoma astrocytoma) were purchased from National Centre for Cell Sciences (NCCS) (Pune, India). Cytotoxic activity of compounds (>80% hIMPDH2 inhibition at 10 μM) was evaluated using colorimetric MTT assay on the above-mentioned cell lines. Briefly, cells were grown in DMEM media supplemented with foetal bovine serum (FBS) 10% and penicillin–streptomycin (50 U/ml, 50 µg/ml) at 37 °C, CO2 (5%) and air (95%). Logarithmically, growing cells were seeded using 96-well plate at different concentrations of the test compounds ranging from 0.01 to 100 μM (seeding density: MDA-MB-231: 10,000 cells/well, DU145: 8000 cells/well, U87 MG: 5000 cells/well). […] Each dilution of test compound was added in triplicate. Following 48-h incubation with the compounds, cells were incubated with MTT reagent (5 mg/ml) for 4 h, and then 100 μl of DMSO was added to dissolve formazan crystals. The absorbance was then measured at 540 nm and 630 nm (background scan) using EPOCH 2 BioTek microplate reader. The IC50 values for the tested compounds were calculated and expressed in μM using mean of triplicate readings.
(In general: Formazan colour is commonly taken as a measure of viable cells.)

The test system of data set [2] is U87 MG (glioblastoma astrocytoma). The experiment in a line: Cell viability (MTT assay), U87 MG. It counts as cell-based. To be noted: for IC50: MTT, 48-h incubation, triplicate, read-out: Cytotoxicity IC50 (μM) ± SD, U87 MG. The protocol:
as §1

Data set [3] has as its system DU145 (prostate carcinoma). The experiment in a line: Cell viability (MTT assay), DU145. Type of data set: cell-based. Conditions: for IC50: MTT, 48-h incubation, triplicate, read-out: Cytotoxicity IC50 (μM) ± SD, DU145. On the procedure: as §1
For the next data set, the target named is T1, hIMPDH2 (Homo sapiens, UniProt P12268).
T1 construct: purchased NovoCIB SAS (Lyon, France)
The data set is described as follows: In vitro hIMPDH2 inhibition assay. Type of data set: biochemical. Conditions: for inhibition at 10 µM / hIMPDH2 enzyme % Inhibition: ± SD, at 10 µM; for inhibition at 10 µM: read-out: hIMPDH2 enzyme % Inhibition; for IC50: triplicate, determined when inhibition >70% at 10 µM, read-out: hIMPDH2 enzyme IC50 (µM) ± SD. The protocol: The enzyme (hIMPDH2) was purchased from NovoCIB SAS (Lyon, France). […] The assay was performed in a 200 µl final volume in 96-well UV plates (Tarsons, 980040, Tarsons Products Pvt. Ltd., Kolkata, India) with a reaction buffer composed of 100 mM Tris–HCl (pH 8.6), 100 mM KCl and 5 mM DTT, 4% v/v DMSO plus or minus test compound and 0.15 mU of purified hIMPDH2 enzyme per well (from 1.5 mg/ml stock solution). […] The reaction was initiated by the addition of (substrate buffer) 0.2 mM of IMP and 0.2 mM of NAD^+ and the assay was allowed to proceed at 37 °C for 45 min. The generated NADH was measured by reading the absorbance at 340 nm. […] The MPA (10 µM) was used as a positive control and DMSO as a vehicle control. […] Enzyme inhibition and IC50 values were expressed in % inhibition and μM, respectively.

Data set [4] is described as follows: hPBMC proliferation assay. It counts as cell-based. Conditions: human, human peripheral blood mononuclear cells (hPBMC), read-out: % cell viability. An excerpt:
Higher lipophilicity and masking of the –COOH in 1 could possibly be responsible for this observation since usually acids are prevented from entering in the CNS.[35] […] The possibility of the title compounds behaving as prodrugs could be minute due to the difficulty in hydrolysing the amide linkage inside cells and release of the active form “MPA”.

With `COc1c(C)c2c(c(O)c1C/C=C(\C)CCC(=O)O)C(=O)OC2` [Compound 1, Mycophenolic acid, reference compound], the IC50 in data set [1] (Homo sapiens, MDA-MB-231) was found to be 4.38 ± 0.06 µM; in data set [2] (Homo sapiens, U-87 MG), 10.7 ± 0.21 µM; in data set [3] (Homo sapiens, DU-145) it was 2.94 ± 0.09 µM. In addition, the inhibition at 10 µM at hIMPDH2 was found to be 99.9 ± 1.2%. The viability in data set [4] came out at 63%.

`COc1c(C)c2c(c(O)c1C/C=C(\C)CCC(=O)N[C@@H](C)c1ccccc1)C(=O)OC2` [Compound 14, (S)(E)-6–(4-hydroxy-6-methoxy-7-methyl-3-oxo-1,3-dihydroisobenzofuran-5-yl)-4-methyl-N-(1-phenylethyl)hex-4-enamide]: on hIMPDH2, the inhibition at 10 µM came out at 59.1 ± 1.91%.

Turning to `COc1c(C)c2c(c(O)c1C/C=C(\C)CCC(=O)N[C@H](C)c1ccccc1)C(=O)OC2` [Compound 15], on hIMPDH2, the “hIMPDH2 enzyme % Inhibition” value is given as 73.94 ± 2.84%, the inhibition at 10 µM was greater than 70% and the IC50 came to 0.82 ± 0.32 µM.

As for `COc1c(C)c2c(c(O)c1C/C=C(\C)CCC(=O)NCc1ccccc1Cl)C(=O)OC2` [Compound 16], at hIMPDH2, the “hIMPDH2 enzyme % Inhibition” value stood at 72.04 ± 1.11%, the inhibition at 10 µM was greater than 70% and the concentration for half-maximal inhibition (IC50) is 0.73 ± 0.06 µM.

For the compound `COc1c(C)c2c(c(O)c1C/C=C(\C)CCC(=O)NCc1ccco1)C(=O)OC2` [Compound 17], the “hIMPDH2 enzyme % Inhibition” value on hIMPDH2 is given as 67.18 ± 4.16%.

Turning to `COc1ccc(CNC(=O)CC/C(C)=C/Cc2c(O)c3c(c(C)c2OC)COC3=O)cc1` [Compound 18], the IC50 in data set [1] (Homo sapiens, MDA-MB-231) is 2.42 ± 0.11 µM; in data set [2] (Homo sapiens, U-87 MG), 5.26 ± 0.18 µM; in data set [3] (Homo sapiens, DU-145), 1.8 ± 0.07 µM; at hIMPDH2, 0.33 ± 0.11 µM. Also, the inhibition at 10 µM at hIMPDH2 is 96.1 ± 2.51%.

For `COc1c(C)c2c(c(O)c1C/C=C(\C)CCC(=O)NCc1ccc(C)cc1)C(=O)OC2` [Compound 19], at hIMPDH2, the inhibition at 10 µM was found to be 73.4 ± 3.62% and the half-inhibitory concentration (IC50) came to 0.6 ± 0.13 µM.

`COc1c(C)c2c(c(O)c1C/C=C(\C)CCC(=O)NCc1ccc(Cl)cc1)C(=O)OC2` [Compound 20]: the IC50 came out at 4.1 ± 0.23 µM in data set [1], 7.31 ± 0.17 µM in data set [2], 2.69 ± 0.11 µM in data set [3] and 0.57 ± 0.11 µM at hIMPDH2. At hIMPDH2, the “hIMPDH2 enzyme % Inhibition” value worked out at 81.36 ± 1.95%.

Consider `COc1c(C)c2c(c(O)c1C/C=C(\C)CCC(=O)NCc1ccncc1)C(=O)OC2` [Compound 21], for which the inhibition at 10 µM at hIMPDH2 was determined as 57.4 ± 1.02%.

As to `COc1c(C)c2c(c(O)c1C/C=C(\C)CCC(=O)NCc1ccccn1)C(=O)OC2` [Compound 22], the inhibition at 10 µM at hIMPDH2 is 59.4 ± 1.81%.

`COc1c(C)c2c(c(O)c1C/C=C(\C)CCC(=O)NCc1ccccc1C)C(=O)OC2` [Compound 23]: the IC50 was determined as 0.77 ± 0.04 µM in data set [1] (Homo sapiens, MDA-MB-231); 4.66 ± 0.07 µM in data set [2] (Homo sapiens, U-87 MG); 1.28 ± 0.04 µM in data set [3] (Homo sapiens, DU-145); 0.5 ± 0.18 µM at hIMPDH2. In addition, in data set [1] (fold vs MPA), the “potency relative to MPA, MDA-MB-231” value is reported as “five-fold more potent than MPA”. The inhibition at 10 µM at hIMPDH2 was 84 ± 2.13%.

Consider `COc1c(C)c2c(c(O)c1C/C=C(\C)CCC(=O)NCCCCc1ccccc1)C(=O)OC2` [Compound 24], for which the half-maximal inhibitory concentration (IC50) in data set [1] (Homo sapiens, MDA-MB-231) came to 1.46 ± 0.07 µM; in data set [2] (Homo sapiens, U-87 MG), 3.35 ± 0.09 µM; in data set [3] (Homo sapiens, DU-145) it was 1.09 ± 0.02 µM; at hIMPDH2, 0.48 ± 0.02 µM. The “potency relative to MPA, U87 MG” value in data set [2] (fold vs MPA) is reported as “three-fold more active than MPA”. Also, the “potency relative to MPA, DU145” value in data set [3] (fold vs MPA) is “three-fold higher potency than MPA”. Moreover, the “hIMPDH2 enzyme % Inhibition” value on hIMPDH2 was determined as 93.62 ± 3.17%. For the same compound, the viability in data set [4] was found to be 65%.

On to `COc1c(C)c2c(c(O)c1C/C=C(\C)CCC(=O)NCc1ccc3c(c1)OCO3)C(=O)OC2` [Compound 25], for which the IC50 came out at 1.86 ± 0.16 µM in data set [1], 8.16 ± 0.27 µM in data set [2], 2.53 ± 0.15 µM in data set [3] and 0.51 ± 0.08 µM on hIMPDH2. The “hIMPDH2 enzyme % Inhibition” value on hIMPDH2 was 87.09 ± 4.54%.

Regarding `COc1c(C)c2c(c(O)c1C/C=C(\C)CCC(=O)NCCN1CCOCC1)C(=O)OC2` [Compound 26], at hIMPDH2, the inhibition at 10 µM amounted to 36 ± 3.86%.

As for `COc1cccc(NC(=O)CC/C(C)=C/Cc2c(O)c3c(c(C)c2OC)COC3=O)c1` [Compound 27, (E)-6–(4-hydroxy-6-methoxy-7-methyl-3-oxo-1,3-dihydroisobenzofuran-5-yl)-N-(3-methoxyphenyl)-4-methylhex-4-enamide], the inhibition at 10 µM at hIMPDH2 was found to be 30.8 ± 2.82%.

For `COc1ccc(NC(=O)CC/C(C)=C/Cc2c(O)c3c(c(C)c2OC)COC3=O)cc1` [Compound 28], the “hIMPDH2 enzyme % Inhibition” value on hIMPDH2 is given as 54.84 ± 1.15%.

Consider `COc1cccc2c1C(=O)c1c(O)c3c(c(O)c1C2=O)C[C@@](O)(C(=O)CO)C[C@@H]3O[C@H]1C[C@H](N)[C@H](O)[C@H](C)O1` [Doxorubicin HCl, reference compound], for which the 50% inhibitory concentration (IC50) was 0.54 ± 0.08 µM in data set [1] (Homo sapiens, MDA-MB-231); 0.11 ± 0.02 µM in data set [2] (Homo sapiens, U-87 MG); 0.21 ± 0.06 µM in data set [3] (Homo sapiens, DU-145).
